Source: ChEMBL document CHEMBL4308864, “Targeting tyrosine kinase: Development of acridone - pyrrole - oxindole hybrids against human breast cancer” (2019)

What was measured:
Format in all cases: functional
Hs-578T = experiment: Growth inhibition of human Hs578T cells assessed as cell growth at 10^-5 M incubated for 48 hrs by sulforhodamine B assay relative to control; settings: read-out: Activity
CCRF-CEM = experiment: Growth inhibition of human CCRF-CEM cells assessed as cell growth at 10^-5 M incubated for 48 hrs by sulforhodamine B assay relative to control; settings: read-out: Activity
UACC-62 = experiment: Growth inhibition of human UACC62 cells assessed as cell growth at 10^-5 M incubated for 48 hrs by sulforhodamine B assay relative to control; settings: UACC-62, 48 h, read-out: Activity
SK-MEL-2 = experiment: Growth inhibition of human SK-MEL-2 cells assessed as cell growth at 10^-5 M incubated for 48 hrs by sulforhodamine B assay relative to control; settings: SK-MEL-2, 48 h, read-out: Activity
HT-29 = experiment: Growth inhibition of human HT-29 cells assessed as cell growth at 10^-5 M incubated for 48 hrs by sulforhodamine B assay relative to control; settings: HT-29, 48 h, read-out: Activity
Malme-3M = experiment: Growth inhibition of human MALME-3M cells assessed as cell growth at 10^-5 M incubated for 48 hrs by sulforhodamine B assay relative to control; settings: read-out: Activity
TK-10 = experiment: Growth inhibition of human TK10 cells assessed as cell growth at 10^-5 M incubated for 48 hrs by sulforhodamine B assay relative to control; settings: TK-10, 48 h, read-out: Activity
HOP-92 = experiment: Growth inhibition of human HOP92 cells assessed as cell growth at 10^-5 M incubated for 48 hrs by sulforhodamine B assay relative to control; settings: HOP-92, 48 h, read-out: Activity
NCI-H522 = experiment: Growth inhibition of human NCI-H522 cells assessed as cell growth at 10^-5 M incubated for 48 hrs by sulforhodamine B assay relative to control; settings: NCI-H522, 48 h, read-out: Activity
SNB-19 = experiment: Growth inhibition of human SNB19 cells assessed as cell growth at 10^-5 M incubated for 48 hrs by sulforhodamine B assay relative to control; settings: SNB-19, 48 h, read-out: Activity
T47D = experiment: Growth inhibition of human T47D cells at 10^-5 M incubated for 48 hrs by sulforhodamine B assay relative to control; settings: read-out: GI
OVCAR-3 = experiment: Growth inhibition of human OVCAR3 cells assessed as cell growth at 10^-5 M incubated for 48 hrs by sulforhodamine B assay relative to control; settings: OVCAR-3, 48 h, read-out: Activity
CAKI-1 = experiment: Growth inhibition of human Caki1 cells assessed as cell growth at 10^-5 M incubated for 48 hrs by sulforhodamine B assay relative to control; settings: CAKI-1, 48 h, read-out: Activity
NCI-H460 = experiment: Growth inhibition of human NCI-H460 cells assessed as cell growth at 10^-5 M incubated for 48 hrs by sulforhodamine B assay relative to control; settings: NCI-H460, 48 h, read-out: Activity
HCC 2998 = experiment: Growth inhibition of human HCC2998 cells assessed as cell growth at 10^-5 M incubated for 48 hrs by sulforhodamine B assay relative to control; settings: HCC 2998, 48 h, read-out: Activity
IGROV-1 = experiment: Growth inhibition of human IGROV1 cells assessed as cell growth at 10^-5 M incubated for 48 hrs by sulforhodamine B assay relative to control; settings: IGROV-1, 48 h, read-out: Activity
MOLT-4 = experiment: Growth inhibition of human MOLT4 cells assessed as cell growth at 10^-5 M incubated for 48 hrs by sulforhodamine B assay relative to control; settings: MOLT-4, 48 h, read-out: Activity
DU-145 = experiment: Growth inhibition of human DU145 cells assessed as cell growth at 10^-5 M incubated for 48 hrs by sulforhodamine B assay relative to control; settings: DU-145, 48 h, read-out: Activity
COLO 205 = experiment: Growth inhibition of human COLO205 cells assessed as cell growth at 10^-5 M incubated for 48 hrs by sulforhodamine B assay relative to control; settings: COLO 205, 48 h, read-out: Activity
MDA-MB-231 = experiment: Growth inhibition of human MDA-MB-231 cells assessed as cell growth at 10^-5 M incubated for 48 hrs by sulforhodamine B assay relative to control; settings: MDA-MB-231, 48 h, read-out: Activity
786-0 = experiment: Growth inhibition of human 786-0 cells assessed as cell growth at 10^-5 M incubated for 48 hrs by sulforhodamine B assay relative to control; settings: 786-0, 48 h, read-out: Activity
MCF7 = experiment: Growth inhibition of human MCF7 cells at 10^-5 M incubated for 48 hrs by sulforhodamine B assay relative to control; settings: MCF7, 48 h, read-out: GI
NCI-H226 = experiment: Growth inhibition of human NCI-H226 cells assessed as cell growth at 10^-5 M incubated for 48 hrs by sulforhodamine B assay relative to control; settings: NCI-H226, 48 h, read-out: Activity
RXF 393 = experiment: Growth inhibition of human RXF393 cells assessed as cell growth at 10^-5 M incubated for 48 hrs by sulforhodamine B assay relative to control; settings: RXF 393, 48 h, read-out: Activity
K562 = experiment: Growth inhibition of human K562 cells assessed as cell growth at 10^-5 M incubated for 48 hrs by sulforhodamine B assay relative to control; settings: K562, 48 h, read-out: Activity
OVCAR-8 = experiment: Growth inhibition of human OVCAR8 cells assessed as cell growth at 10^-5 M incubated for 48 hrs by sulforhodamine B assay relative to control; settings: OVCAR-8, 48 h, read-out: Activity
OVCAR-5 = experiment: Growth inhibition of human OVCAR5 cells assessed as cell growth at 10^-5 M incubated for 48 hrs by sulforhodamine B assay relative to control; settings: OVCAR-5, 48 h, read-out: Activity

Compound	growth at 10 µM (Hs-578T)	growth at 10 µM (CCRF-CEM)	growth at 10 µM (UACC-62)	growth at 10 µM (SK-MEL-2)	growth at 10 µM (HT-29)	growth at 10 µM (Malme-3M)	growth at 10 µM (TK-10)	growth at 10 µM (HOP-92)	growth at 10 µM (NCI-H522)	growth at 10 µM (SNB-19)	inhibition of growth at 10 µM (T47D)	growth at 10 µM (OVCAR-3)	growth at 10 µM (CAKI-1)	growth at 10 µM (NCI-H460)	growth at 10 µM (HCC 2998)	growth at 10 µM (IGROV-1)	growth at 10 µM (MOLT-4)	growth at 10 µM (DU-145)	growth at 10 µM (COLO 205)	growth at 10 µM (MDA-MB-231)	other results
O=C1NC(=O)C(=Cc2cccn2CCCCCn2c3ccccc3c(=O)c3ccccc32)C(=O)N1	106%	100%	90.8%	107%	103%	119%	101%	90.4%	90.5%	101%	13%	105%	103%	108%	105%	99.4%	93.3%	113%	114%	116%	growth at 10 µM (786-0): 99%; inhibition of growth at 10 µM (MCF7): 15%; growth at 10 µM (NCI-H226): 99.2%; growth at 10 µM (RXF 393): 110%; growth at 10 µM (K562): 89.1%; growth at 10 µM (OVCAR-8): 102%; growth at 10 µM (OVCAR-5): 101%
O=C1NC(=O)C(=Cc2cccn2CCCn2c3ccccc3c(=O)c3ccccc32)C(=O)N1	115%	92.7%	87.1%	109%	99.7%	114%	96.6%	87.8%	88.6%	94.2%	15%	112%	96.7%	105%	104%	101%	93.7%	108%	108%	99.4%	growth at 10 µM (786-0): 96.3%; inhibition of growth at 10 µM (MCF7): 12%; growth at 10 µM (NCI-H226): 96.3%; growth at 10 µM (RXF 393): 95.9%; growth at 10 µM (K562): 88.4%; growth at 10 µM (OVCAR-8): 101%; growth at 10 µM (OVCAR-5): 99.9%
O=C1Nc2ccccc2/C1=C/c1cccn1CCCCCCn1c2ccccc2c(=O)c2ccccc21	96.3%	49.8%	50.3%	86.2%	92.9%	90.7%	78.7%	56.4%	66%	97.1%	100%	64.9%	72.6%	90.7%	42.8%	88%	50.9%	94%	50.5%	75.4%	growth at 10 µM (786-0): 103%; inhibition of growth at 10 µM (MCF7): 99%; growth at 10 µM (NCI-H226): 72.7%; growth at 10 µM (RXF 393): 99.2%; growth at 10 µM (K562): 66.6%; growth at 10 µM (OVCAR-8): 47.5%; growth at 10 µM (OVCAR-5): 82.2%
O=C1NC(=O)C(=Cc2cccn2CCCCCCn2c3ccccc3c(=O)c3ccccc32)C(=O)N1	106%	93.8%	82.1%	107%	105%	112%	126%	85%	92.7%	94.2%	25%	103%	92.8%	101%	101%	91.5%	79.6%	103%	105%	94.6%	growth at 10 µM (786-0): 97.9%; inhibition of growth at 10 µM (MCF7): 24%; growth at 10 µM (NCI-H226): 89.5%; growth at 10 µM (RXF 393): 106%; growth at 10 µM (K562): 74.7%; growth at 10 µM (OVCAR-8): 93%; growth at 10 µM (OVCAR-5): 98.3%
O=C1Nc2ccccc2/C1=C/c1cccn1CCCCn1c2ccccc2c(=O)c2ccccc21	86.3%	52.8%	51.8%	84%	89.1%	91.9%	104%	59.5%	68.4%	98.4%	95%	86.7%	69.5%	93.7%	40.5%	77.3%	47.7%	94.2%	69.8%	64.7%	growth at 10 µM (786-0): 97%; inhibition of growth at 10 µM (MCF7): 96%; growth at 10 µM (NCI-H226): 75.2%; growth at 10 µM (RXF 393): 88.1%; growth at 10 µM (K562): 59.5%; growth at 10 µM (OVCAR-8): 58.8%; growth at 10 µM (OVCAR-5): 77.9%
O=C1Nc2ccccc2/C1=C/c1cccn1CCCCCn1c2ccccc2c(=O)c2ccccc21	90.5%	44.9%	48.2%	84%	89.5%	84.5%	93.8%	65.5%	66.3%	95.3%	98%	70.9%	65.9%	95.9%	42.5%	73%	46%	97.9%	56.2%	69.3%	growth at 10 µM (786-0): 105%; inhibition of growth at 10 µM (MCF7): 99%; growth at 10 µM (NCI-H226): 70%; growth at 10 µM (RXF 393): 89.2%; growth at 10 µM (K562): 52.1%; growth at 10 µM (OVCAR-8): 45.6%; growth at 10 µM (OVCAR-5): 82.6%
O=C1/C(=C\c2cccn2CCCCCCn2c3ccccc3c(=O)c3ccccc32)c2ccccc2N1c1c(Cl)cccc1Cl	103%	108%	85.5%	98.8%	106%	102%	91%	75.3%	91%	99.2%	57%	102%	87.8%	109%	78.8%	90.6%	91.2%	113%	92.8%	101%	growth at 10 µM (786-0): 103%; inhibition of growth at 10 µM (MCF7): 85%; growth at 10 µM (NCI-H226): 81.9%; growth at 10 µM (RXF 393): 97%; growth at 10 µM (K562): 97.9%; growth at 10 µM (OVCAR-8): 98.5%; growth at 10 µM (OVCAR-5): 93.5%
